In article PMC5442318, “Hundreds of dual-stage antimalarial molecules discovered by a functional gametocyte screen” (Nature Communications, 2017):
Like-named read-outs stand apart in the source and are kept apart here.

Key:
[1] = tested on: P. falciparum stage V female gametocytes; assay: P. falciparum female gametocyte activation assay (Pf FGAA), 24 h or 48 h preincubation, Pfs25 expression readout; type: cell-based, Plasmodium falciparum NF54; details: mean, read-out: Gametocytes mean Pf FGAA IC50
Procedure, shortened: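 Female activation, triggered by xanthurenic acid and cooling, was scored by imaging Cy3-labelled anti-Pfs25 female gametes after 24 h at 26 °C. Beforehand, purified NF54 stage V gametocytes had been incubated with compound for either 24 h or 48 h (37 °C, 3% O2). Values are pIC50 from full-curve regression.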

[2] = tested on: P. falciparum asexual blood stages; details: read-out: Pf Asexual blood stages XC50, cited from earlier work
[3] = tested on: P. falciparum stages IV–V gametocytes; assay: Gametocytocidal ATP-depletion assay (gametocyte ATP bioluminescence); type: cell-based, Plasmodium falciparum
Procedure, shortened: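 Read-out is luciferase luminescence of parasite ATP (BacTiter-Glo), standing in for viability. Double-purified mature stage IV–V gametocytes, 12,500 per well, were exposed 48 h at 37 °C in low-O2 gas; screening concentration 2 μM.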

[4] = tested on: HepG2 cells; assay: HepG2 cytotoxicity assay; type: cell-based
Procedure, shortened: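 Luminescent read-out (CellTiter-Glo) taken 10 min after reagent addition at RT; plates and reagent pre-equilibrated 30 min at RT.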

[5] = P. falciparum female gametocyte activation assay
[6] = TCAMS asexual blood stage data, ref 1 (Gamo, F. J. et al., Nature 465, 305-310, 2010)
[7] = P. falciparum female gametocytes
[8] = TCAMS data, ref 1 (Gamo et al., 2010)

Row | SMILES | IC50 [1, 7] [nM] | IC50 [1] [nM] | IC50 [1, 5] [nM] | IC50 [2, 6] [nM] | Gametocytes mean ATP inhibition at 2µM [3] [%] | HepG2 cells mean TOX50 ([4]; mean; HepG2 cells) [µM] | HepG2 cells mean TOX50 ([4]; HepG2 cells; mean) [µM] | IC50 [2, 8] [nM] | Gametocytes mean ATP inhibition at 2µM (%) [3] [%] | HepG2 cells mean TOX50 ([4]; mean) [µM]
1 | O=c1c(NCCCN(Cc2ccc(F)cc2)c2ccccn2)c(NCc2cccnc2)c1=O [TCMDC-142311] |  |  | 360 | 60 | 58.25 | >100 |  |  |  | 
2 | CS(=O)(=O)O.FC(F)(F)COc1ccc2ccccc2c1CCNCCCCNCCc1c(OCC(F)(F)F)ccc2ccccc12 [TCMDC-137317] |  | 1010 |  |  |  |  |  | 430 | 88.24 | 2.09
3 | Cc1cc(F)ccc1-c1nc(NCCCNCCc2ccccc2)nc2c1ccc(=O)n2-c1c(F)cccc1F.O=C(O)C(F)(F)F [TCMDC-141804] |  |  | 3610 | 190 | 82.21 | 12.59 |  |  |  | 
4 | Cc1sc2ncnc(Sc3nnc(N)s3)c2c1C [TCMDC-124542] | 770 |  |  | 400 | 30.31 |  | 36.31 |  |  | 
5 | Cc1cc(I)ccc1Nc1nc2nonc2nc1Nc1ccc(I)cc1C [TCMDC-124083] | 1080 |  |  | 510 | 6.94 |  | 0.93 |  |  | 
6 | Cl.N=C1C=C(N)C(=O)c2ccccc21 [TCMDC-141992] |  |  | 11900 | 1050 | 55.55 | 0.52 |  |  |  | 
7 | COc1cc2c(OC)cccc2cc1CNCCCCCCNCc1cc2cccc(OC)c2cc1OC.CS(=O)(=O)O [TCMDC-137945] |  | 1820 |  |  |  |  |  | 820 | -15.51 | 4.90
8 | Fc1ccc2[nH]c(-c3ccc(-c4ccc(CN5CCC(CCN6CCCCC6)CC5)cc4)cc3)nc2c1.O=C(O)C(F)(F)F [TCMDC-133924] | 1700 |  |  | 130 | 11.89 |  | 3.94 |  |  | 
9 | CNCCNCc1ccc(-c2ccc(-c3nc4cc(C(F)(F)F)ccc4[nH]3)s2)cc1.O=C(O)C(F)(F)F [TCMDC-132838] | 1280 |  |  | 600 | -8.87 |  | 6.10 |  |  | 
10 | NCCCNc1nc(Nc2ccc(C(F)(F)F)cc2F)c2c(=O)[nH]ccc2n1.O=C(O)C(F)(F)F [TCMDC-135056] | 1600 |  |  | 1050 | -14.04 |  | 9.30 |  |  | 
11 | CCCC(=O)NC(c1ccc(C(C)C)cc1)c1ccc2cccnc2c1O (stereo not shown) [TCMDC-123884] | 1540 |  |  | 930 | 63.50 |  | >100 |  |  | 
12 | c1ccc2sc(Sc3ncnc4sccc34)nc2c1 [TCMDC-125539] | 140 |  |  | 730 | 69.68 |  | >100 |  |  | 
13 | CN1CCN(c2ccc(Nc3ncc([N+](=O)[O-])c(Nc4ccccc4O)n3)cc2)CC1.O=C(O)C(F)(F)F [TCMDC-141372] |  |  | 2010 | 720 | -21.03 | 1.82 |  |  |  | 
14 | CCCCCCOc1ccc2ccccc2c1CNCCCCCCNCc1c(OCCCCCC)ccc2ccccc12.CS(=O)(=O)O [TCMDC-137963] |  | 1500 |  |  |  |  |  | 1060 | 77.54 | 2.40
15 | CN(C)c1ccc(-c2csc(C(=O)NCC3CCN(Cc4ccc(C(C)(C)C)cc4)C3)c2)cc1.O=C(O)C(F)(F)F (stereo not shown) [TCMDC-134449] | 600 |  |  | 990 | -20.17 |  | 7.24 |  |  | 
16 | FC(F)(F)c1ccc2[nH]c(-c3cccc(-c4cccc(CNCCN5CCNCC5)c4)c3)nc2c1.O=C(O)C(F)(F)F [TCMDC-132871] | 1220 |  |  | 940 | 0.88 |  | 6.61 |  |  | 
17 | Oc1c(C(Nc2ccccn2)c2ccc(Cl)cc2Cl)ccc2cccnc12 (stereo not shown) [TCMDC-125559] | 1140 |  |  | 890 | 84.30 |  | 12.74 |  |  | 
18 | CC(C)c1ccc(CN2CCC(CNC(=O)c3cc(-c4cccc(C(F)(F)F)c4)cs3)C2)cc1.O=C(O)C(F)(F)F (stereo not shown) [TCMDC-134435] | 1300 |  |  | 910 | -4.54 |  | 5.13 |  |  | 

Now from value to molecule, other results behind:

Row | IC50 [1, 7] [nM] | IC50 [1] [nM] | SMILES | IC50 [1, 5] [nM] | IC50 [2, 6] [nM] | Gametocytes mean ATP inhibition at 2µM [3] [%] | HepG2 cells mean TOX50 ([4]; mean; HepG2 cells) [µM] | HepG2 cells mean TOX50 ([4]; HepG2 cells; mean) [µM] | IC50 [2, 8] [nM] | Gametocytes mean ATP inhibition at 2µM (%) [3] [%] | HepG2 cells mean TOX50 ([4]; mean) [µM]
19 | 160 |  | c1ccc(-c2nc(NC3CCCCC3)cc(C3CC3)n2)nc1 [TCMDC-125825] |  | 730 | 85.03 |  | 48.99 |  |  | 
20 | 13300 |  | Cc1[nH]c(C)c(-c2ccc(CCc3ccc(F)cc3F)cc2)c(=O)c1Cl [TCMDC-135462] |  | 16 | 51.34 |  | >100 |  |  | 
21 |  | 4420 | Nc1nc(N)c2c(ccc3[nH]c(-c4ccccc4Cl)nc32)n1 [TCMDC-137840] |  |  |  |  |  | 230 | 22.85 | 2.32
22 |  | 1800 | O=C(NC1CCN(CCN2CCC(c3c[nH]c4ccccc34)CC2)CC1)c1ccc(-c2ccc(C(F)(F)F)cc2)cc1 [TCMDC-138845] |  |  |  |  |  | 210 | -6.33 | 4.68
23 | 900 |  | COc1cc2nc(NCCCN3CCCCC3)nc(NCc3ccccc3)c2cc1OC [TCMDC-132012] |  | 1000 | 19.39 |  | 6.84 |  |  | 
24 |  | 540 | Cc1ccc(C(=O)Nc2ccc(Nc3ccnc4cc(-c5ccccn5)ccc34)cc2O)cc1.Cl [TCMDC-138205] |  |  |  |  |  | 110 | 46.13 | 1.27
25 |  | 1210 | CCN(CC)CCN(Cc1ccc(-c2ccc(C(F)(F)F)cc2)cc1)C(=O)Cn1cc(Cc2cnn(C)c2)c(=O)nc1/C=C/c1ccc(F)cc1.O=C(O)C(O)C(O)C(=O)O [TCMDC-140741] |  |  |  |  |  | 1060 | 46.80 | 13.81
26 |  | 1710 | CN(C)CCNCc1ccc(-c2ccc3c(Nc4ccc(Cl)cc4F)ccnc3c2)o1 [TCMDC-138391] |  |  |  |  |  | 210 | 2.24 | 0.89
27 | 2050 |  | CCc1c(CCNCCCCCNCCc2ccc(OC)c(OC)c2CC)ccc(OC)c1OC.Cl [TCMDC-132064] |  | 1110 | 27.40 |  | 4.68 |  |  | 
28 |  | 870 | O=C(/C=C/c1ccc(Cl)c(Cl)c1)N1CCC(CN2CCC(c3c[nH]c4ccncc34)CC2)CC1 [TCMDC-140074] |  |  |  |  |  | 730 | -2.94 | 5.32
29 | 390 |  | COc1cc(-c2cc(-c3ccc(S(C)(=O)=O)cc3)cnc2N)ccc1O [TCMDC-133343] |  | 100 | 57.72 |  | 41.69 |  |  | 
30 |  | 1030 | CC(C)Cn1cc(C2CCN(CCN3CCC(CNC(=O)c4ccc(-c5ccc(C#N)cc5)cc4)CC3)CC2)c2ccccc21 [TCMDC-138849] |  |  |  |  |  | 790 | 8.40 | 4.79
31 | 2380 |  | Br.Oc1ccc(CCNCCCCCCNCCc2ccc(Cl)c3ccccc23)cc1O [TCMDC-131271] |  | 720 | 14.57 |  | 11.22 |  |  | 
32 |  | 990 | CCCN(CCC)CCCN(CCCN(CCC)CCC)c1cc(C)nc(Nc2ccc3cc(Br)ccc3c2)n1.Cl [TCMDC-138006] |  |  |  |  |  | 210 | -22.37 | 3.43
33 | 670 |  | COc1ccc2nc3cc(Cl)ccc3c(N)c2c1.Cl [TCMDC-125835] |  | 170 | 101.44 |  | 1.57 |  |  | 
34 |  | 1860 | CCCCCCCN1CC[C@@H](CCCc2ccnc3ccc(OCCN4CCNCC4)cc23)[C@@H](CC)C1.Cl [TCMDC-139817] |  |  |  |  |  | 770 | 8.71 | 4.90
35 |  | 720 | COc1cc(/C=C(\C2=NC(=O)CS2)c2nc3cccnc3n2C)ccc1O [TCMDC-135917] |  |  |  |  |  | 1000 | 48.81 | 21.14
36 | 1260 |  | COc1ccc(CCNCCCCCCNCCc2ccc(-c3ccccc3)cc2)cc1OC.Cl [TCMDC-131267] |  | 960 | 51.20 |  | 6.90 |  |  | 
37 |  | 3490 | CN1CCN(CCNc2c3ccccc3nc3c2ccc2ccccc23)CC1.Cl [TCMDC-137723] |  |  |  |  |  | 610 | 67.71 | 5.07
